# How the values were obtained:
# Format in all cases: in vivo
# Settings in all cases: sprayed after 8 days cultivation, evaluated after 13 days, scores from 10 to 0 (10=total damage to plant; 0=no damage to plant)
# AMARE = test: Example B1 herbicidal action post-emergence, AMARE
# Experimental: (§1) Seeds of a variety of test species were sown in standard soil in pots. After 8 days cultivation (post-emergence) under controlled conditions in a glasshouse (at 24/16° C., day/night; 14 hours light; 65% humidity), the plants were sprayed with an aqueous spray solution derived from the formulation of the technical active ingredient in acetone/water (50:50) solution containing 0.5% Tween 20 (polyoxyethelyene sorbitan monolaurate, CAS RN 9005-64-5). The test plants were then grown under controlled conditions in a glasshouse (at 24/16° C., day/night; 14 hours light; 65% humidity) and watered twice daily. After 13 days, the test was evaluated and the assessed scores, from 10 to 0, are tabulated in Table B1 (10=total damage to plant; 0=no damage to plant).
# SETFA = test: Example B1 herbicidal action post-emergence, SETFA
# Experimental: as §1
# IPOHE = test: Example B1 herbicidal action post-emergence, IPOHE
# Experimental: as §1
# SOLNI = test: Example B1 herbicidal action post-emergence, SOLNI
# Experimental: as §1
# ECHCG = test: Example B1 herbicidal action post-emergence, ECHCG
# Experimental: as §1
Structure (SMILES),"assessed score, application post-emergence, AMARE (AMARE; Rate 1000 g/ha)","assessed score, application post-emergence, SETFA (SETFA; Rate 1000 g/ha)","assessed score, application post-emergence, IPOHE (IPOHE; Rate 1000 g/ha)","assessed score, application post-emergence, SOLNI (SOLNI; Rate 1000 g/ha)","assessed score, application post-emergence, ECHCG (ECHCG; Rate 1000 g/ha)","assessed score, application post-emergence, AMARE (AMARE; Rate 250 g/ha)","assessed score, application post-emergence, SETFA (SETFA; Rate 250 g/ha)","assessed score, application post-emergence, IPOHE (IPOHE; Rate 250 g/ha)","assessed score, application post-emergence, SOLNI (SOLNI; Rate 250 g/ha)","assessed score, application post-emergence, ECHCG (ECHCG; Rate 250 g/ha)"
Cc1cccc(F)c1C1=C(O)c2nccnc2CS1(=O)=O [Compound C4],7,5,2,4,3,–,–,–,–,–
O=S1(=O)Cc2nccnc2C(O)=C1c1c(Cl)ccc(Cl)c1Cl [Compound C18],7,8,8,8,8,–,–,–,–,–
"CCOCOC1=C(c2cc(Cl)ccc2C(F)(F)F)S(=O)(=O)Cc2nccnc21 [Compound X1, 7-(5-chloro-2-trifluoromethyl-phenyl)-8-ethoxymethoxy-5H-6-thia-1,4-diaza-naphthalene 6,6-dioxide]",6,6,7,8,2,–,–,–,–,–
Cc1cc(C)c(C2=C(O)c3nccnc3CS2(=O)=O)c(C)c1 [Compound C20],1,4,7,7,4,–,–,–,–,–
CC#CCC1c2nccnc2C(O)=C(c2c(F)ccc(Br)c2Cl)S1(=O)=O (centres unmarked) [Compound E21],6,4,8,9,7,–,–,–,–,–
O=S1(=O)C(c2c(F)ccc(Br)c2Cl)=C(O)c2nccnc2C12CCC2 [Compound F7],4,1,6,5,1,–,–,–,–,–
C#CCC1c2nccnc2C(O)=C(c2c(Cl)cccc2C(F)(F)F)S1(=O)=O (racemic) [Compound E2],10,8,8,8,8,–,–,–,–,–
O=S1(=O)C(c2cc(Cl)ccc2C(F)(F)F)=C(O)c2nccnc2C1CC(F)F (racemic) [Compound E7],–,–,–,–,–,6,2,7,7,2
COc1ccc(Cl)c(C2=C(O)c3nccnc3CS2(=O)=O)c1F [Compound C5],3,4,3,4,1,–,–,–,–,–
O=S1(=O)Cc2nccnc2C(O)=C1c1ccccc1OC(F)F [Compound C9],6,7,1,4,3,–,–,–,–,–
CCC1c2nccnc2C(O)=C(c2cc(Cl)ccc2C(F)(F)F)S1(=O)=O (racemic) [Compound E6],8,3,7,8,5,–,–,–,–,–
O=S1(=O)Cc2nccnc2C(O)=C1c1ccccc1C(F)(F)F [Compound C11],7,7,5,7,5,–,–,–,–,–
O=S1(=O)C(c2c(Cl)cccc2C(F)(F)F)=C(O)c2nccnc2C12CC2 [Compound F4],9,8,7,9,6,–,–,–,–,–
